This is an account of results in paper PMC7447632, “Highly functionalized β-lactams and 2-ketopiperazines as TRPM8 antagonists with antiallodynic activity” (Scientific Reports, 2020).

Common to all, as to type: cell-based
Assay [1] has as its system A549 (lung carcinoma, NSCLC). Briefly: SRB cytotoxicity assay, A549. The settings on record: 72 h, SRB; for TGI A549: total growth inhibition; for TGI A549 / CC50: unit inferred; for GI50 / CC50: Homo sapiens, A549; for CC50: read-out: LC50 A549. As to the method:
Human tumor cell lines used in this study were purchased from the ATCC. A-549 (CCL-185), lung carcinoma; HT-29 (HTB-38), colorectal adenocarcinoma; MDA-MB-231 (HTB-26), breast adenocarcinoma; PSN1, pancreas adenocarcinoma.
All cell lines were maintained in DMEM (Dulbecco’s Modified Eagle's Medium) culture medium supplemented with 10% FBS (Fetal Bovine Serum), 100 Units/mL penicillin/streptomycin at 37 °C, 5% CO2 and 95% humidity.
Triplicate cultures were incubated for 72 h in the presence or absence of test compounds in dose–response curves (10 concentrations, typically ranging from 10 to 0.0026 µg/mL). A colorimetric assay using sulforhodamine B (SRB) was adapted for quantitative measurement of cell growth and cytotoxicity. A more detailed information on this assay is provides in the supplementary information. GI50 is the compound concentration that produces 50% inhibition on cell growth as compared to control cells.
In vitro bioassays for the detection of antitumor activity
The aim of this assay is to evaluate the in vitro cytostatic (ability to delay or arrest tumor cell growth) or cytotoxic (ability to kill tumor cells) activity of the samples […]
Name Nº ATCC Species Tissue Characteristics
A549 CCL-185 human lung lung carcinoma (NSCLC)
HT29 HTB-38 human colon colorectal adenocarcinoma
MDA-MB-231 HTB-26 human breast breast adenocarcinoma
PSN1 CRM-CRL-3211 human pancreas pancreas adenocarcinoma […]
A colorimetric assay, using Sulforhodamine B (SRB) reaction has been adapted to provide a quantitative measurement of cell growth and viability (following the technique described by Skehan et al. J. Natl. Cancer Inst. 1990, 82, 1107-1112 […]
This form of assay employs 96-well cell culture microplates following the standards of the American National Standards Institute and the Society for Laboratory […]
used in this study were obtained from the American Type Culture Collection (ATCC) and derive from different types of human cancer.
A549, HT29, MDA-MB-231 and PSN1 cells were maintained in Dulbecco’s
Modified Eagle Medium (DMEM) supplemented with 10% Fetal Bovine Serum (FBS), 2mM L-glutamine, 100 U/mL penicillin, and 100 U/mL streptomycin at 37 °C, 5% CO2 and 98% humidity. For the experiments, cells were harvested from subconfluent cultures using trypsinization and resuspended in fresh medium before counting and […]
A549, HT29, MDA-MB-231 and PSN1 cells were seeded in 96 well microtiter plates, at 5000 cells per well in aliquots of 150 µL, and allowed to attach to the plate surface for 18 hours (overnight) in drug free medium. After that, one control (untreated) plate of each cell line was fixed (as described below) and used for time zero reference value. Culture plates were then treated with test compounds (50 µL aliquots of 4X stock […]
solutions in complete culture medium plus 4% DMSO) using ten 2/5 serial dilutions (concentrations ranging from 10 to 0.003 µg/mL) and triplicate cultures (1% final concentration in DMSO). After 72 hours treatment, the antitumor effect was measured by using the SRB methodology: Briefly, cells were washed twice with PBS, fixed for 15 min in 1% glutaraldehyde solution at room temperature, rinsed twice in PBS, and stained in 0.4% SRB solution for 30 min at room temperature. Cells were then rinsed several times with 1% acetic acid solution and air-dried at room temperature. SRB was then extracted in 10 mM trizma base solution and the absorbance measured in an automated spectrophotometric plate reader at 490 nm.
Effects on cell growth and survival were estimated by applying the NCI algorithm (Boyd MR and Paull KD. Drug Dev. Res. 1995, 34, 91-109, DOI:10.1002/ddr.430340203). The values obtained in triplicate cultures were fitted by nonlinear regression to a four-parameters logistic curve by nonlinear regression analysis. . Using the absorbance measurements [time zero, (Tz), control growth, (C), and test growth in the presence of drug at the ten concentration levels (Ti)], the […]

In a further assay the test system is 60 tumor cell screen. In words: 60 tumor cell screen at the National Cancer Institute. The settings on record: 10 µM concentration. The source says: A number of recent experimental evidences position TRPM channels as important players in cancer growth and progression. Among these channels, the aberrant expression of the TRPM8 subtype has been described in different human malignant tumors, including those of prostate, pancreas, breast, colon, and skin, among others. More importantly, sometimes the TRPM8 overexpression was associated to poor prognosis of cancer patients. […] Based on these precedents, in this work we first aimed at evaluating the antitumor activity of enantiopure compounds 24a and 29a. Initially, we assessed the growth inhibition percentage by a 10 µM concentration of these compounds on a 60 tumor cell screen at the National Cancer Institute (USA).

In another assay the target is T1, rat TRPM8 channel (Rattus norvegicus, UniProt Q8R455).
T1 construct: expressed in transfected cells; host or cells: HEK293 (stably transfected)
In words: Ca2+ microfluorometry, menthol-induced Ca2+ influx in HEK293 cells expressing rat TRPM8. The settings on record: 100 µM menthol, HEK-rTRPM8; for % Blockade 5 µM: 5 µM compound; for % Blockade 50 µM: 50 µM compound; for IC50: Ca2+ microfluorometry. The method, then: The ability to inhibit menthol-induced Ca^2+ intracellular influx into the cytosol on HEK293 cells heterologously expressing the rat TRPM8 channel was measured and compared to that of AMTB, a well-known TRPM8 antagonist. Representative recordings of fluorescence obtained in microfluorometry experiments for selected compounds are in Supplementary Fig. S3.
Human embryonic kidney cell line (HEK) stably transfected with rTRPM8 or h-TRPV1 were used as previously described. Briefly, cells were seeded in 96-well plates at a cell density of 30,000 cells 2 days before treatment. Buffer used was HBBS (in mM): 138 NaCl, 5.33 KCl, 1.26 CaCl2, 0.5 MgCl-6H2O, 0.4 MgSO4-7H2O, 4 NaHCO3 0.44 KH2PO4, 0.3 Na2HPO4, pH 7.4. The day of treatment the medium was replaced with 100 µL of the dye loading solution Fluo-4 NW supplemented with probenecid 2.5 mM. After incubation, plates were transferred to a fluorescence plate reader (Polastar BMG). In the experimental protocol, the baseline fluorescence was recorded ([…]) for 3 cycles. After, vehicle, compound at different concentrations and the corresponding antagonist, 10 µM AMTB for TRPM8 or 10 µM Ruthenium Red for TRPV1 were added to the well. Fluorescence intensity was recorded during 7 cycles more. Finally, the agonist 100 µM menthol for TRPM8 or 1 µM capsaicin for TRPV1 was added and fluorescence intensity was recorded during 10 cycles more.
The degree of inhibition of TRPM8 channel gating was calculated by comparison to calcium increase signal elicited by test substances and menthol at 100 µM. Decrease of menthol signal was expressed as percentage of inhibition (%). All data are expressed as mean ± standard deviation (SD). Each condition was assessed by triplicate (n = 3) in 3 independent experiments (N = 3). Z-factor was calculated in each assay using the following equation: […]. In all the experiments Z-factor was ≥ 0.5. To calculate IC50, normalized responses (%) versus log [µM] were adjusted to a non-linear fit with variable slope, a four-parameter dose–response curve following curve Y = 100/(1 + 10^((Log IC50-X)*HillSlope)) where […].

A value given as a limit tells only on which side of the number the result lay.

T1 sequence (Q8R455 whole entry): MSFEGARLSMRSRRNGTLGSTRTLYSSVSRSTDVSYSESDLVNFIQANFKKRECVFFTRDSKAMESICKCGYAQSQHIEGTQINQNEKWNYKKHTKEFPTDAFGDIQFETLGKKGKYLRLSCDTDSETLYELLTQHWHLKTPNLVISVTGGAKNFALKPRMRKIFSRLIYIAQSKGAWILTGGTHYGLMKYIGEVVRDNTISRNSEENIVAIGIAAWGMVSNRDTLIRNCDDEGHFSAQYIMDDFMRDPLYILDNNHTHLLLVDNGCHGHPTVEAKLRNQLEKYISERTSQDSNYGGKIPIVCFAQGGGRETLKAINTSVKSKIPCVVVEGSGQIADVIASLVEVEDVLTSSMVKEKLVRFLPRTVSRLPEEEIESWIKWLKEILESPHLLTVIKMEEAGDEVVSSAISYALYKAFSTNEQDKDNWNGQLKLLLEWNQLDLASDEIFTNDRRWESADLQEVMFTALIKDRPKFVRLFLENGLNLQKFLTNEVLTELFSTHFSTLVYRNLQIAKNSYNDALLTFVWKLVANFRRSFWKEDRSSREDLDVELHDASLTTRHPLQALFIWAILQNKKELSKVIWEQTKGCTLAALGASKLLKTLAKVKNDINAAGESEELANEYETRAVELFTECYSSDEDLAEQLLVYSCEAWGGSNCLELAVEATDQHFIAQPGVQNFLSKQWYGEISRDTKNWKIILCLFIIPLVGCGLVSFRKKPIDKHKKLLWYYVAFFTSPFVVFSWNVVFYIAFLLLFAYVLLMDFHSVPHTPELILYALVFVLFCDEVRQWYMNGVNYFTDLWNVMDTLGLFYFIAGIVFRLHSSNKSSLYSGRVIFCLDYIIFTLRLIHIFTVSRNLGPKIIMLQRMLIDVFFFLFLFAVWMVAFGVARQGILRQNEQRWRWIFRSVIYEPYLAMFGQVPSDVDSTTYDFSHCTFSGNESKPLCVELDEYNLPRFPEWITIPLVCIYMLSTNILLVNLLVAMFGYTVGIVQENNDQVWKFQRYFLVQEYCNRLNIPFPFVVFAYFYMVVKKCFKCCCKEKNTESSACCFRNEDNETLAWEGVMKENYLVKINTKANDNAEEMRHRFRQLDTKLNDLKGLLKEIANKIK

For `C[C@@H]1C(=O)N(C[C@H](Cc2ccccc2)NC(=O)OCc2ccccc2)[C@]1(Cc1ccccc1)C(=O)OCc1ccccc1` [Compound 24a, 4S-Benzyl-4-benzyloxycarbonyl-3S-methyl-1-[(2′S-benzyloxycarbonylamino-3′-phenyl)prop-1′-yl]-2-oxoazetidine], in assay [1], the TGI A549 was > 17.3 µM, halving of growth (GI50) required 3.29 µM and the CC50 is > 17.3 µM. Further, the “Growth inhibition in 60 tumor cell screen” value in the assay on 60 tumor cell screen is recorded as “non-selective, modest cytotoxic effects”. Further, at rat TRPM8 channel, the “% Blockade 5 µM” value is given as 65.4 ± 6.4%, the “% Blockade 50 µM” value was 110.7 ± 11.7% and half-maximal inhibition (IC50) required 2.4 ± 1.2 µM.

Consider `C[C@@H]1C(=O)N(C[C@@H](Cc2ccccc2)NC(=O)OCc2ccccc2)[C@]1(Cc1ccccc1)C(=O)OCc1ccccc1` [Compound 29a, 4S-Benzyl-4-benzyloxycarbonyl-3S-methyl-1-[(2′R-benzyloxycarbonylamino-3′-phenyl)prop-1′-yl]-2-oxoazetidine], for which, in assay [1], the TGI A549 is > 17.3 µM, the GI50 is 5.9 µM and the CC50 is > 17.3 µM. Further, the “Growth inhibition in 60 tumor cell screen” value in the assay with 60 tumor cell screen was “non-selective, modest cytotoxic effects”. Also, on rat TRPM8 channel, the “% Blockade 5 µM” value turned out to be 97.2 ± 4.8%, the “% Blockade 50 µM” value is 100.0 ± 5.0% and the IC50 was found to be 0.4 µM.

As usually defined, the GI50 is the concentration giving 50% growth inhibition. Lower therefore signals greater sensitivity of the cells. In general, IC50 refers to the concentration at which inhibition is half-maximal.
